Laboratory results published in patent publication US11583569B2, “PSMA-targeting amanitin conjugates” (Heidelberg Pharma Research GmbH, priority 2017, dated 2023).

How the values were obtained:
LNCaP (PSMA+) = type: cell-based; conditions: for IC50: LNCaP (PSMA+); for S (selectivity): IC50 PC3 (PSMA−) / IC50 LNCaP (PSMA+); for TI for LNCaP: IC50 of free toxin / IC50 of conjugate
Source text: (§1) Note: A direct comparison of all DUPA conjugates with amanitin was not performed in one experiment. The amanitin curve shown in the graph is derived from the direct comparison between HDP 30.2284 and amanitin.

PC3 (PSMA−) = type: cell-based
Source text: as §1

RNA-polymerase II = RNA-polymerase II (Homo sapiens, UniProt P24928); conditions: complex between amanitin and RNA-polymerase II; cited from earlier work

Compound	IC50 (LNCaP (PSMA+))	IC50 (PC3 (PSMA−))	Kd (RNA-polymerase II)	S (selectivity) (LNCaP (PSMA+))	TI for LNCaP (LNCaP (PSMA+))
CC[C@H](C)[C@@H]1NC(=O)CNC(=O)[C@@H]2Cc3c([nH]c4cc(O)ccc34)[S+]([O-])C[C@@H](NC(=O)CNC1=O)C(=O)N[C@@H](CC(N)=O)C(=O)N1C[C@H](O)C[C@H]1C(=O)N[C@@H]([C@@H](C)[C@@H](O)CO)C(=O)N2 (stereo in doubt) [α-amanitin, reference compound]	0.479 µM	0.213 µM	0.003 µM		
CC[C@H](C)[C@@H]1NC(=O)CNC(=O)[C@H]2Cc3c([nH]c4cc(OCc5ccc(NC(=O)[C@H](C)NC(=O)[C@@H](NC(=O)CCCCCN6C(=O)CC(SC[C@H](NC(=O)[C@H](Cc7ccccc7)NC(=O)[C@H](Cc7ccccc7)NC(=O)CCCCCCCNC(=O)CCC(NC(=O)NC(CCC(=O)O)C(=O)O)C(=O)O)C(=O)O)C6=O)C(C)C)cc5)ccc34)[S+]([O-])C[C@H](NC(=O)CNC1=O)C(=O)N[C@@H](CC(N)=O)C(=O)N1C[C@H](O)C[C@H]1C(=O)N[C@@H]([C@@H](C)[C@@H](O)CO)C(=O)N2 (stereo partly drawn) [HDP 30.2284, 6′-O-[6-(3-(((DUPA-Aoc-Phe-Phe-Cys)-sulfanyl)-2,5-dioxopyrrolidin-1-yl)-hexanamido)-Val-Ala-PAB]-α-amantin]	0.000863 µM	1.57 µM		1819	555
CC[C@H](C)[C@@H]1NC(=O)CNC(=O)[C@@H]2Cc3c([nH]c4cc(OCCCCCCN5C(=O)CC(SC[C@H](NC(=O)[C@H](Cc6ccccc6)NC(=O)[C@H](Cc6ccccc6)NC(=O)CCCCCCCNC(=O)CC[C@H](NC(=O)N[C@@H](CCC(=O)O)C(=O)O)C(=O)O)C(=O)O)C5=O)ccc34)[S@+]([O-])C[C@H](NC(=O)CNC1=O)C(=O)N[C@@H](CC(N)=O)C(=O)N1C[C@H](O)C[C@H]1C(=O)N[C@@H]([C@@H](C)[C@@H](O)CO)C(=O)N2 (stereo partly drawn) [HDP 30.2301, 6′-O-[6-(((DUPA-Aoc-Phe-Phe-Cys)-sulfanyl)-2,5-dioxopyrrolidin-1-yl)-hexyl]-α-amantin]	0.00611 µM	1.52 µM		249	78
CC[C@H](C)[C@@H]1NC(=O)CNC(=O)[C@@H]2Cc3c([nH]c4cc(OCc5ccc(NC(=O)[C@H](C)NC(=O)[C@@H](NC(=O)CN6C(=O)C(SCCOCCOCCOCCOCCOCCOCCOCCNC(=O)[C@H](Cc7ccccc7)NC(=O)[C@H](Cc7ccccc7)NC(=O)CCCCCCCNC(=O)CC[C@H](NC(=O)N[C@@H](CCC(=O)O)C(=O)O)C(=O)O)=C(SCCOCCOCCOCCOCCOCCOCCOCCNC(=O)[C@H](Cc7ccccc7)NC(=O)[C@H](Cc7ccccc7)NC(=O)CCCCCCCNC(=O)CC[C@H](NC(=O)N[C@@H](CCC(=O)O)C(=O)O)C(=O)O)C6=O)C(C)C)cc5)ccc34)[S@+]([O-])C[C@H](NC(=O)CNC1=O)C(=O)N[C@@H](CC(N)=O)C(=O)N1C[C@H](O)C[C@H]1C(=O)N[C@@H]([C@@H](C)[C@@H](O)CO)C(=O)N2 [HDP 30.2490, 6′-O-[(3,4-(((DUPA-Aoc-Phe-Phe-PEGn)-sulfanyl)-2,5-dioxopyrrolidin-1-yl)-propanamido)-Val-Ala-PAB]-α-amantin]				52.5	62
CC[C@H](C)[C@@H]1NC(=O)CNC(=O)C2Cc3c([nH]c4cc(OCc5ccc(NC(=O)[C@H](C)NC(=O)[C@@H](NC(=O)CSC[C@@H](NC(=O)[C@H](Cc6ccccc6)NC(=O)[C@H](Cc6ccccc6)NC(=O)CCCCCCCNC(=O)CCC(NC(=O)NC(CCC(=O)O)C(=O)O)C(=O)O)C(=O)O)C(C)C)cc5)ccc34)[S+]([O-])CC(NC(=O)CNC1=O)C(=O)N[C@@H](CC(N)=O)C(=O)N1CC(O)C[C@H]1C(=O)N[C@@H]([C@@H](C)[C@@H](O)CO)C(=O)N2 (stereo partly drawn) [HDP 30.2515, 6′-O-[2-((DUPA-Aoc-Phe-Phe-Cys)-sulfanyl)-acetamido-Val-Ala-PAB]-α-amantin]	0.00451 µM	0.663 µM			
CC[C@H](C)[C@@H]1NC(=O)CNC(=O)[C@@H]2Cc3c([nH]c4cc(OCc5ccc(NC(=O)[C@H](C)NC(=O)[C@@H](NC(=O)CCN6C(=O)CC(SC[C@H](NC(=O)[C@H](Cc7ccccc7)NC(=O)[C@H](Cc7ccccc7)NC(=O)CCCCCCCNC(=O)CC[C@H](NC(=O)N[C@@H](CCC(=O)O)C(=O)O)C(=O)O)C(=O)O)C6=O)C(C)C)cc5)ccc34)[S@+]([O-])C[C@H](NC(=O)CNC1=O)C(=O)N[C@@H](CC(N)=O)C(=O)N1C[C@H](O)C[C@H]1C(=O)N[C@@H]([C@@H](C)[C@@H](O)CO)C(=O)N2 (stereo partly drawn) [HDP 30.2535, 6′-O-[3-(3-(((DUPA-Aoc-Phe-Phe-Cys)-sulfanyl)-2,5-dioxopyrrolidin-1-yl)-propanamido)-Val-Ala-PAB]-α-amantin]				191	253
CC[C@H](C)[C@@H]1NC(=O)CNC(=O)[C@@H]2Cc3c([nH]c4cc(OCc5ccc(NC(=O)[C@H](CCCNC(N)=O)NC(=O)[C@@H](NC(=O)CCCCCN6C(=O)CC(SC[C@H](NC(=O)[C@H](Cc7ccccc7)NC(=O)[C@H](Cc7ccccc7)NC(=O)CCCCCCCNC(=O)CC[C@H](NC(=O)N[C@@H](CCC(=O)O)C(=O)O)C(=O)O)C(=O)O)C6=O)C(C)C)cc5)ccc34)[S@+]([O-])C[C@H](NC(=O)CNC1=O)C(=O)N[C@@H](CC(N)=O)C(=O)N1C[C@H](O)C[C@H]1C(=O)N[C@@H]([C@@H](C)[C@@H](O)CO)C(=O)N2 (stereo partly drawn) [HDP 30.2537, 6′-O-[6-(3-(((DUPA-Aoc-Phe-Phe-Cys)-sulfanyl)-2,5-dioxopyrrolidin-1-yl)-hexanamido)-Val-Cit-PAI3]-α-amantin]				148	371
CC[C@H](C)[C@@H]1NC(=O)CNC(=O)[C@@H]2Cc3c([nH]c4cc(OCCC(C)SSC[C@H](NC(=O)[C@H](Cc5ccccc5)NC(=O)[C@H](Cc5ccccc5)NC(=O)CCCCCCCNC(=O)CC[C@H](NC(=O)N[C@@H](CCC(=O)O)C(=O)O)C(=O)O)C(=O)O)ccc34)[S@+]([O-])C[C@H](NC(=O)CNC1=O)C(=O)N[C@@H](CC(N)=O)C(=O)N1C[C@H](O)C[C@H]1C(=O)N[C@@H]([C@@H](C)[C@@H](O)CO)C(=O)N2 (stereo partly drawn) [HDP 30.2589]				22.5	53
